Source: ChEMBL document CHEMBL2074004, “P-glycoprotein-dependent disposition kinetics of tacrolimus: studies in mdr1a knockout mice” (Pharm Res, 1999)

Assays:
[1] = biological target: T1, ATP-dependent translocase ABCB1 (Mus musculus, UniProt P21447); assay: TP_TRANSPORTER: increase in brain concentration in mdr1a(-/-) mouse; type: functional, organism-based; details: in vivo
[2] = biological target: T1, ATP-dependent translocase ABCB1; assay: TP_TRANSPORTER: increase in blood concentration in mdr1a(-/-) mouse; type: functional, organism-based; details: in vivo

T1 sequence (P21447 whole entry): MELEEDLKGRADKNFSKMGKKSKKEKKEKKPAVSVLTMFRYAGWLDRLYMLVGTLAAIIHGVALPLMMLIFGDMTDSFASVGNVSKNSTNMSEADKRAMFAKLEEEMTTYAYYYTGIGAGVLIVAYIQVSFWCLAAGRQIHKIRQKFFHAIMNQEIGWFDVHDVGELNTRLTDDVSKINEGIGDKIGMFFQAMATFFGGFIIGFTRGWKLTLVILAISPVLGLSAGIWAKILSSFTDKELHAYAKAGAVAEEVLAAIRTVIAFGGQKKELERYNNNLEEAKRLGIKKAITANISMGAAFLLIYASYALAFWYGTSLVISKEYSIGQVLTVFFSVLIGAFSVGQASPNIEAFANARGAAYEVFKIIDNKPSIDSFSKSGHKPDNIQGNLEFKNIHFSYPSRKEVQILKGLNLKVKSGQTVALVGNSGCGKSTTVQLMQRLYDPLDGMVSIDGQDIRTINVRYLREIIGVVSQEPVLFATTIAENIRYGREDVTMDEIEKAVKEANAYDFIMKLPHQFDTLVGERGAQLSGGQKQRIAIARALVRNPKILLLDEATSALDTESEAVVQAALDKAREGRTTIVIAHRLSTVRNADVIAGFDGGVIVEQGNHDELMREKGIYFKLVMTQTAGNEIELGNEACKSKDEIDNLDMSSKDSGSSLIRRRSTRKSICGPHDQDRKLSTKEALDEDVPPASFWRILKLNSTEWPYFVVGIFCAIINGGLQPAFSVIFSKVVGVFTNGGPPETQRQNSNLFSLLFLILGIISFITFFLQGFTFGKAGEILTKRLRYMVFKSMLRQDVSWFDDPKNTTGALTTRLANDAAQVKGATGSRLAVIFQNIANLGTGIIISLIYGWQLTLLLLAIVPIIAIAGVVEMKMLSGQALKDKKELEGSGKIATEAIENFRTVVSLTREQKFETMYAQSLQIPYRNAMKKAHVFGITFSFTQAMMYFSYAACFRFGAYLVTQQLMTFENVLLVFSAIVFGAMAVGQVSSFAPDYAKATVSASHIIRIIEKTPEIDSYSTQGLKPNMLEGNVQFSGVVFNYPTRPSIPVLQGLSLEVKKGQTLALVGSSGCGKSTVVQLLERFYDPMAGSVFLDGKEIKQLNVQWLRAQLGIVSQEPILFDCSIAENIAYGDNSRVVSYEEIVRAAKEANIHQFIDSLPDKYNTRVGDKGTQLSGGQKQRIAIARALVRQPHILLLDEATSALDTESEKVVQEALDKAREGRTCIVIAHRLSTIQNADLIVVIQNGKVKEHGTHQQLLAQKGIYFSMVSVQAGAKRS

C=CC[C@@H]1/C=C(\C)C[C@H](C)C[C@H](OC)[C@H]2O[C@@](O)(C(=O)C(=O)N3CCCC[C@H]3C(=O)O[C@H](/C(C)=C/[C@@H]3CC[C@@H](O)[C@H](OC)C3)[C@H](C)[C@@H](O)CC1=O)[C@H](C)C[C@@H]2OC [TACROLIMUS ANHYDROUS]
Activity [1]: substrate [+] | Activity [2]: substrate [+]
